According to patent US11028090B2 (Dong Wha Pharm. Co., Ltd., priority 2017, dated 2021):
Read-outs that look alike come from different tables or passages of the source.

Columns and labels:
[1] = target: BRD4 (BD1+BD2) bromodomain (Homo sapiens (Human), UniProt O60885); test: BRD4 binding inhibition (AlphaScreen, GST-BRD4 vs tetraacetylated histone H4 peptide)
How it was run: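 GST-BRD4 (BD1+BD2) and biotinylated tetraacetyl-histone H4 peptide, each at 100 nM in HEPES pH 7.4 buffer with BSA and DTT, were combined with compound. Glutathione acceptor and streptavidin donor beads were added, then incubated 30 min at room temperature in the dark. Read-out was AlphaScreen signal.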

[2] = system: acute myelogenous leukemia cells (MV-4-11 cells); test: Cytotoxicity to acute myelogenous leukemia cells (MV-4-11 cells), CCK-8; conditions: Homo sapiens, MV4-11, 72 h
[3] = GST-BRD4 (BD1+BD2) / biotinylated acetyl-histone H4 (Lys5,8,12,16) peptide, read-out: IC50, BRD4 binding inhibition
[4] = GST-BRD4 (BD1+BD2) vs biotinylated acetyl-histone H4 peptide, AlphaScreen, read-out: BRD4 IC50
[5] = read-out: IC50, cytotoxicity against acute myelogenous leukemia cells
[6] = read-out: MV-4-11 Cytotoxicity IC50

| Compound | IC50 [1, 3] | IC50 [1, 4] | IC50 [2, 5] | IC50 [2, 6] |
| --- | --- | --- | --- | --- |
| COCCOc1ccc2c(c1)nc(NCCCCNC(=O)Cc1ccccc1)c1nnc(C)n12 [Example 420, N-{4-[7-(2-methoxy-ethoxy)-1-methyl-[1,2,4]triazolo[4,3-a]quinoxaline-4-ylamino]-butyl}-2-phenyl-acetamide] | ≤ 10 nM | 2 nM | ≤ 200 nM | 180 nM |
| COCCOc1ccc2c(c1)nc(NCCCCNC(=O)NC(C)C)c1nnc(C)n12 [Example 422, 1-isopropyl-3-{4-[7-(2-methoxy-ethoxy)-1-methyl-[1,2,4]triazolo[4,3-a]quinoxaline-4-ylamino]-butyl}-urea] | ≤ 10 nM | 3 nM |  | 450 nM |
| COCCOc1ccc2c(c1)nc(NCCCCNC(=O)NC1CCCCC1)c1nnc(C)n12 [Example 426, 1-cyclohexyl-3-{4-[7-(2-methoxy-ethoxy)-1-methyl-[1,2,4]triazolo[4,3-a]quinoxaline-4-ylamino]-butyl}-urea] | ≤ 50 nM | 17 nM | ≤ 200 nM | 190 nM |
| Cc1nnc2c(NCCCCNC(=O)OC(C)(C)C)nc3cc(OCCN4CCOCC4)ccc3n12 [Example 430, {4-[1-methyl-7-(2-morpholine-4-yl-ethoxy)-[1,2,4]triazolo[4,3-a]quinoxaline-4-ylamino]-butyl}-carbamic acid-tert-butylester] | ≤ 50 nM | 22 nM |  | 600 nM |
| Cc1nnc2c(NCCCCNC(=O)CC(C)C)nc3cc(OCCN4CCOCC4)ccc3n12 [Example 432, 3-methyl-N-{4-[1-methyl-7-(2-morpholine-4-yl-ethoxy)-[1,2,4]triazolo[4,3-a]quinoxaline-4-ylamino]-butyl}-butyramide] | ≤ 50 nM | 50 nM | ≤ 200 nM | 100 nM |
| Cc1nnc2c(NCCCCNC(=O)C(C)(C)C)nc3cc(OCCN4CCOCC4)ccc3n12 [Example 433, 2,2-dimethyl-N-{4-[1-methyl-7-(2-morpholine-4-yl-ethoxy)-[1,2,4]triazolo[4,3-a]quinoxaline-4-ylamino]-butyl}-propionamide] |  | 61 nM |  | 340 nM |
| Cc1nnc2c(NCCCCNC(=O)[C@@H](O)C(C)C)nc3cc(OCCN4CCOCC4)ccc3n12 [Example 435, 2-(S)-hydroxy-N-{4-[7-(2-morpholine-4-yl-ethoxy)-1-methyl-[1,2,4]triazolo[4,3-a]quinoxaline-4-ylamino]-butyl}-3-methyl-butyramide] | ≤ 10 nM | 8 nM |  | 110 nM |
| Cc1nnc2c(NCCCCNC(=O)OC(C)C)nc3cc(OCCN4CCOCC4)ccc3n12 [Example 436, {4-[1-methyl-7-(2-morpholine-4-yl-ethoxy)-[1,2,4]triazolo[4,3-a]quinoxaline-4-ylamino]-butyl}-carbamic acid isopropylester] | ≤ 50 nM | 18 nM | ≤ 200 nM | 160 nM |
| Cc1nnc2c(NCCCCNC(=O)OC3CCCC3)nc3cc(OCCN4CCOCC4)ccc3n12 [Example 437, {4-[1-methyl-7-(2-morpholine-4-yl-ethoxy)-[1,2,4]triazolo[4,3-a]quinoxaline-4-ylamino]-butyl}-carbamic acid cyclopentylester] | ≤ 50 nM | 31 nM | ≤ 200 nM | 70 nM |
| Cc1nnc2c(NCCCCNC(=O)Cc3cccs3)nc3cc(OCCN4CCOCC4)ccc3n12 [Example 438, N-{4-[1-methyl-7-(2-morpholine-4-yl-ethoxy)-[1,2,4]triazolo[4,3-a]quinoxaline-4-ylamino]-butyl}-2-thiophene-2-yl-acetamide] | ≤ 50 nM | 37 nM | ≤ 200 nM | 33 nM |
| Cc1nnc2c(NCCCCNC(=O)c3ccccc3Cl)nc3cc(OCCN4CCOCC4)ccc3n12 [Example 439, 2-chloro-N-{4-[1-methyl-7-(2-morpholine-4-yl-ethoxy)-[1,2,4]triazolo[4,3-a]quinoxaline-4-ylamino]-butyl}-benzamide] | ≤ 50 nM | 38 nM | ≤ 200 nM | 100 nM |
| CCOc1ccc2c(c1)nc(NCCCCNC(=O)OC(C)(C)C)c1nnc(C)n12 [Example 440, [4-(7-ethoxy-1-methyl-[1,2,4]triazolo[4,3-a]quinoxaline-4-ylamino)-butyl]-carbamic acid-tert-butylester] | ≤ 10 nM | 9 nM |  | 580 nM |
| CCOc1ccc2c(c1)nc(NCCCCNC(=O)CC(C)C)c1nnc(C)n12 [Example 442, N-[4-(7-ethoxy-1-methyl-[1,2,4]triazolo[4,3-a]quinoxaline-4-ylamino)-butyl]-3-methyl-butyramide] | ≤ 50 nM | 16 nM | ≤ 200 nM | 110 nM |
| CCOc1ccc2c(c1)nc(NCCCCNC(=O)OC(C)C)c1nnc(C)n12 [Example 443, [4-(7-ethoxy-1-methyl-[1,2,4]triazolo[4,3-a]quinoxaline-4-ylamino)-butyl]-carbamic acid isopropylester] | ≤ 50 nM | 13 nM | ≤ 200 nM | 120 nM |
| CCOc1ccc2c(c1)nc(NCCCCNC(=O)OCC(C)C)c1nnc(C)n12 [Example 444, [4-(7-ethoxy-1-methyl-[1,2,4]triazolo[4,3-a]quinoxaline-4-ylamino)-butyl]-carbamic acid isobutylester] | ≤ 10 nM | 10 nM | ≤ 200 nM | 120 nM |
| CCOc1ccc2c(c1)nc(NCCCCNC(=O)OC1CCCC1)c1nnc(C)n12 [Example 445, [4-(7-ethoxy-1-methyl-[1,2,4]triazolo[4,3-a]quinoxaline-4-ylamino)-butyl]-carbamic acid cyclopentylester] | ≤ 50 nM | 13 nM | ≤ 200 nM | 100 nM |
| CCOc1ccc2c(c1)nc(NCCCCNC(=O)Cc1cccs1)c1nnc(C)n12 [Example 446, N-[4-(7-ethoxy-1-methyl-[1,2,4]triazolo[4,3-a]quinoxaline-4-ylamino)-butyl]-2-thiophene-2-yl-acetamide] | ≤ 50 nM | 12 nM | ≤ 200 nM | 10 nM |
| Cc1nnc2c(NCCCCNC(=O)CC(C)C)nc3cc(OC(C)C)ccc3n12 [Example 449, N-[-(7-isopropoxy-1-methyl-[1,2,4]triazolo[4,3-a]quinoxaline-4-ylamino)-butyl]-3-methyl-butyramide] | ≤ 50 nM | 27 nM |  | 300 nM |
| CCC(C)C(=O)NCCCCNc1nc2cc(OC(C)C)ccc2n2c(C)nnc12 (centres unmarked) [Example 450, N-[4-(7-isopropoxy-1-methyl-[1,2,4]triazolo[4,3-a]quinoxaline-4-ylamino)-butyl]-2-methyl-butyramide] | ≤ 50 nM | 19 nM |  | 270 nM |
| Cc1nnc2c(NCCCCNC(=O)Cc3cccs3)nc3cc(OC(C)C)ccc3n12 [Example 451, N-[4-(7-isopropoxy-1-methyl-[1,2,4]triazolo[4,3-a]quinoxaline-4-ylamino)-butyl]-2-thiophene-2-yl-acetamide] | ≤ 50 nM | 13 nM | ≤ 200 nM | 24 nM |
| Cc1nnc2c(NCCCCNC(=O)OC3CCCC3)nc3cc(OC(C)C)ccc3n12 [Example 453, [4-(7-isopropoxy-1-methyl-[1,2,4]triazolo[4,3-a]quinoxaline-4-ylamino)-butyl]-carbamic acid cyclopentyl ester] | ≤ 50 nM | 24 nM |  | 500 nM |
| Cc1nnc2c(NCCCCNC(=O)c3ccccc3Cl)nc3cc(OC(C)C)ccc3n12 [Example 454, 2-chloro-N-[4-(7-isopropoxy-1-methyl-[1,2,4]triazolo[4,3-a]quinoxaline-4-ylamino)-butyl]-benzamide] | ≤ 50 nM | 11 nM | ≤ 200 nM | 80 nM |
| COc1cc(C)c2c(c1)nc(NCCCCNC(=O)CC(C)C)c1nnc(C)n12 [Example 458, [4-(7-methoxy-1,9-dimethyl-[1,2,4]triazolo[4,3-a]quinoxaline-4-ylamino)-butyl]-3-methyl-butyramide] | ≤ 10 nM |  |  | 530 nM |
| COc1ccc2c(nc(NCCCCNC(=O)CC(C)C)c3nnc(C)n32)c1Cl [Example 461, [4-(6-chloro-7-methoxy-1-methyl-[1,2,4]triazolo[4,3-a]quinoxaline-4-ylamino)-butyl]-3-methyl-butyramide] | ≤ 50 nM |  |  | 250 nM |
| COc1ccc2c(nc(NCCCCNC(=O)OCC(C)C)c3nnc(C)n32)c1Cl [Example 462, [4-(6-chloro-7-methoxy-1-methyl-[1,2,4]triazolo[4,3-a]quinoxaline-4-ylamino)-butyl]-carbamic acid isobutylester] | ≤ 50 nM |  |  | 600 nM |
| COc1ccc2c(nc(NCCCCNC(=O)Cc3cccs3)c3nnc(C)n32)c1Cl [Example 463, N-[4-(6-chloro-7-methoxy-1-methyl-[1,2,4]triazolo[4,3-a]quinoxaline-4-ylamino)-butyl]-2-thiophene-2-yl-acetamide] | ≤ 50 nM |  | ≤ 200 nM | 100 nM |
| COc1cc2nc(NCCCCN)c3nnc(C)n3c2cc1C [Example 465, N^1-(7-methoxy-1,8-dimethyl-[1,2,4]triazolo[4,3-a]quinoxaline-4-yl)-butane-1,4-diamine ditrifluoroacetic acid] |  | 72 nM |  | 690 nM |
| COc1cc2nc(NCCCCNC(=O)c3ccccc3Cl)c3nnc(C)n3c2cc1C [Example 470] |  | 63 nM |  | 220 nM |
